{
  "source": "paper PMC11945475",
  "about": "“Nasal Administration of a Nanoemulsion Based on Methyl Ferulate and Eugenol Encapsulated in Chitosan Oleate: Uptake Studies in the Central Nervous System” (Pharmaceutics, 2025)",
  "key": {"[1]": {"details": "rat, Fer 1 mg/kg i.v.; cited from earlier work"}, "[2]": {"test": "Intravenous administration of Fer-Me to rats (bloodstream and CSF pharmacokinetics)", "assay_type": "in vivo, rat", "experimental": "Charles River laboratories, Calco, Italy) bloodstream and CSF. […] The sample size (4 rats/group) has been chosen based on our previous studies. The experimental procedures were approved by the Italian Ministry of Health and were performed in accordance with the European Communities Council Directive of September 2010 (2010/63/EU). According to the ARRIVE guidelines, all possible efforts were made to minimize animal pain and discomfort and to reduce the number of experimental subjects. Fer-Me solution (2.5 mg/mL final concentration, 15% v/v EtOH content) was prepared by first dissolving Fer-Me in EtOH and then adding this latter solution to a saline solution (0.9% NaCl). […] The aqueous phase was then subjected to a double extraction with 1 mL of H2O-saturated ethyl acetate. […] Data were acquired and processed through CLASS-VP Software; version 7.2.1 (Shimadzu Italia, Milan, Italy). The mobile phase was eluted under isocratic conditions (0.8 mL/min) and was constituted by a mixture of acetic acid in H2O (0.4% v/v) and MeOH, whose ratio was 40:60 (v/v). The UV-Vis detector was set at 320 nm for the detection of Fer-Me, its hydrolysis product Fer, and Caf-Me, which was utilized as an internal standard during blood sample extraction. […] The average recoveries were approximately 40% for Fer and 58% for Fer-Me. For this reason, the concentrations of these compounds were determined by their peak area ratio with respect to the internal standard (Caf-Me). […] Fer-Me in vivo half-life (t1/2) in the rats' bloodstream was determined using nonlinear regression (exponential decay) of concentration values quantified at appropriate time intervals after infusion, further validated by applying linear regression to the semi-logarithmic plot."}, "[3]": {"parameters": "method as in PMID 33547615", "details": "rats, Fer at doses up to 40 mg/kg; cited from earlier work"}, "[4]": {"details": "rat, after Fer-Me 10 mg/kg i.v. infusion"}},
  "data": [
    {"smiles": "COc1cc(/C=C/C(=O)O)ccc1O", "note": "[Fer, ferulic acid]", "values": [
      {"measurement": "AUC in CSF", "setting": "[1]", "result": "3.3 ± 0.3", "unit": "µg·min/mL"},
      {"measurement": "AUC in the bloodstream", "setting": "[1]", "result": "244 ± 13", "unit": "µg·min/mL"},
      {"measurement": "Cmax in CSF", "setting": "[1]", "result": "0.08 ± 0.01", "unit": "µg/mL"},
      {"measurement": "Tmax in CSF", "setting": "[1]", "result": 1, "unit": "h"},
      {"measurement": "Fer AUC as percentage of the Fer-Me AUC value", "setting": "[2]; rat bloodstream, after Fer-Me 10 mg/kg i.v.", "result": 1.3, "unit": "%"},
      {"measurement": "Fer concentration in the bloodstream", "setting": "[2]; rat, about 20 min after end of Fer-Me 10 mg/kg i.v. infusion", "result": "0.205 ± 0.050", "unit": "µg/mL"},
      {"measurement": "AUC of hydrolysis product Fer in the bloodstream", "setting": "[2]; [4]", "result": "8.4 ± 0.8", "unit": "µg·min/mL"},
      {"measurement": "C0 of hydrolysis product Fer in the bloodstream", "setting": "[2]; [4]", "result": "0.209 ± 0.001", "unit": "µg/mL"},
      {"measurement": "time within which Fer blood concentration decreased to zero", "setting": "[2]; rat, from the end of Fer-Me 10 mg/kg i.v. infusion", "result": "≤ 60", "unit": "min"},
      {"measurement": "side effects", "setting": "[3]", "result": "no side effects"}
    ]}
  ]
}
